For four compounds, IC50 results are on record in ChEMBL document CHEMBL1147388, “Three new cytotoxic metabolites from the marine sponge Plakortis halichondrioides” (J Nat Prod, 1993).

In brackets after ≈: the same amount, converted by molar mass.

The assay deals with P388. The assay can be described thus: Cytotoxicity against mouse P388 cells. Type of assay: functional, cell-based.
In general, IC50 refers to the midpoint of a concentration-inhibition curve. Higher therefore signals a need for much substance. As for `CC/C=C/C(CC)C/C(=C/C(O)(CC)CC(O)(/C=C/C(=O)O)CC)CC` (centres undefined), the IC50 worked out at 10 µg/mL (≈ 27.3 µM).

Compound `CC/C=C/C(CC)C/C(C)=C/C(O)(CC)CC(O)(/C=C/C(=O)O)CC` (centres undefined) registered an IC50 of 10 µg/mL (≈ 28.4 µM). For `CC/C=C/C(CC)CCCC1(CC)C[C@H](CC)[C@H](CC(=O)O)OO1` (relative stereo) the value was 0.5 µg/mL (≈ 1.47 µM); for `CC/C=C/C(CC)CCCC1(CC)C[C@H](CC)[C@H](CC(=O)OC)OO1` (relative stereo), 5 µg/mL (≈ 14.1 µM).
